In ChEMBL document CHEMBL1201862, “PubChem BioAssay data set” (2004):
Calls of active or inactive are those of the source. For most assays here, no stated cut-off is given here; in the data, actives have a measured EC50 and inactives only a lower limit.

Columns and labels:
[1] = Trypanosoma cruzi growth suppression in host cells – NIH3T3 host cells, beta-gal luminescence, confirmation (AID 2044); assay type: functional, cell-based;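 further: intracellular parasites grown in NIH/3T3 mouse fibroblasts as host cells; luminescent beta-galactosidase reporter signal from transgenic T. cruzi replicating inside host cells; inhibitors lower the luminescence signal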
[2] = target: T1, DNA repair protein RAD52 homolog (Homo sapiens, UniProt P43351); assay type: functional, biochemical
T1 sequence (P43351 whole entry): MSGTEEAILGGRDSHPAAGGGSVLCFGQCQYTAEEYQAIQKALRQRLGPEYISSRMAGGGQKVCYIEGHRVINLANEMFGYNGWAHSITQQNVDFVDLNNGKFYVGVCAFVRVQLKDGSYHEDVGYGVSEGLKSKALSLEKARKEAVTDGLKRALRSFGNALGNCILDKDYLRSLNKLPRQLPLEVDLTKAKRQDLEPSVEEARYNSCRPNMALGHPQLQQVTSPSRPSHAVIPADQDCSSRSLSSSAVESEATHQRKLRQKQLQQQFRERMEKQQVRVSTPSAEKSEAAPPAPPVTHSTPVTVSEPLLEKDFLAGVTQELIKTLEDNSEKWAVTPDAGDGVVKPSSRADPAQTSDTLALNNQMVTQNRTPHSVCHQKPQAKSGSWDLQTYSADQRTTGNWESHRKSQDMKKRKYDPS

[3] = NIH3T3 cell viability loss – ATP luminescence, mouse fibroblasts, counter-screen, dose response (AID 2010); assay type: functional, cell-based;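 further: cells exposed to compound for about 90 hours before reading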
[4] = target: T2, Histone-lysine N-methyltransferase NSD2 (Homo sapiens, UniProt O96028); assay type: biochemical
T2 sequence (O96028 whole entry): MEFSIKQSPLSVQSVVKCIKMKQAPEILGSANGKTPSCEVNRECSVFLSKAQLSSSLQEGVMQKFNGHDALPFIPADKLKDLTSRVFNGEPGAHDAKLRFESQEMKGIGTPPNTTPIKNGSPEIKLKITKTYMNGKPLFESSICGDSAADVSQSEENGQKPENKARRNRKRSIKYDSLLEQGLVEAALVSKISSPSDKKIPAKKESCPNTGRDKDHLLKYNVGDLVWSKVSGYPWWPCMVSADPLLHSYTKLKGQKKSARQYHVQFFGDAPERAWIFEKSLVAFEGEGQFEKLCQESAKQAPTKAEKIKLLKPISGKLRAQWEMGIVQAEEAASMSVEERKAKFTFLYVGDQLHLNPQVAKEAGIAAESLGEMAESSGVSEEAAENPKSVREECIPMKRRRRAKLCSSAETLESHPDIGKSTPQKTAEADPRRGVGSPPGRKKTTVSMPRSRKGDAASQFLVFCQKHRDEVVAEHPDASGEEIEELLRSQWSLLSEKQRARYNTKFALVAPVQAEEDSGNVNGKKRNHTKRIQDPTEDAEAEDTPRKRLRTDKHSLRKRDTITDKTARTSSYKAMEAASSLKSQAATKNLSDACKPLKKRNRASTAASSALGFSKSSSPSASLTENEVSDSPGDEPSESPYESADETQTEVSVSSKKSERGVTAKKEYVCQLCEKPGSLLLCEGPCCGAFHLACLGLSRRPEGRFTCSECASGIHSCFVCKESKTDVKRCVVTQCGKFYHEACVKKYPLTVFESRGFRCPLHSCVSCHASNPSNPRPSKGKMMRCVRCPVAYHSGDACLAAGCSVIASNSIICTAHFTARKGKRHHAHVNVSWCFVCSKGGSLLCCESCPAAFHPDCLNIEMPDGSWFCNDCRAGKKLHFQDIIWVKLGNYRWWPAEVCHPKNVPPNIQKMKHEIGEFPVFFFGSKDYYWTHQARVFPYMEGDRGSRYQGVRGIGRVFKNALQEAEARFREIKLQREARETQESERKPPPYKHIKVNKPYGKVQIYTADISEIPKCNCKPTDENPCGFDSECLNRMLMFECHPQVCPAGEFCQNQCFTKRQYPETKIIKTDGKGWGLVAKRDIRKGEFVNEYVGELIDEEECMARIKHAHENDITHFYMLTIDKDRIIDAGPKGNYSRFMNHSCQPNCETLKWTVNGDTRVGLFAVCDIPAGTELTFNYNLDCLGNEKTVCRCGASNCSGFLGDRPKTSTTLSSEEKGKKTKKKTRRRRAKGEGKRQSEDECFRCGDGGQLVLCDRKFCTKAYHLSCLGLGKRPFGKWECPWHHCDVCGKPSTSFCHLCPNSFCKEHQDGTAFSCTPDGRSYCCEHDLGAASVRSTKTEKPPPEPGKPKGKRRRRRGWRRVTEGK

cells [5] = assay type: functional, cell-based
cells [6] = assay type: functional, cell-based; remark: listed apart in the source
Cytochrome P450 3A4 = Cytochrome P450 3A4 (Homo sapiens, UniProt P08684); settings: Potency;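 further: confirmatory qHTS run detecting inhibitors and substrates of CYP3A4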
[7] = reduced cellular PGC1a acetyl-lysine signal – cell-based, cherry-picked samples, dose response (AID 720514); assay type: functional;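 further: potency may reflect raised or lowered acetylation signal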
[8] = NIH-3T3 fibroblast cytotoxicity, dose response, cytotoxicity control, cell-based, fluorescence, Alamar Blue, secondary assay (AID 2327); assay type: functional;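 further: NIH-3T3 mouse fibroblasts cultured with fluconazole at 8 µg/mL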
[9] = fluconazole-exposed Candida albicans growth modulators – fluorescence, retest, confirmation (AID 2467); assay type: functional, cell-based
[10] = target: T3, Replicative DNA helicase DnaB (Mycobacterium tuberculosis, UniProt P9WMR3); assay: DnaB intein splicing inhibitors, dose response, biochemical, cell-free fluorescence (AID 449749); assay type: functional
T3 sequence (P9WMR3 whole entry): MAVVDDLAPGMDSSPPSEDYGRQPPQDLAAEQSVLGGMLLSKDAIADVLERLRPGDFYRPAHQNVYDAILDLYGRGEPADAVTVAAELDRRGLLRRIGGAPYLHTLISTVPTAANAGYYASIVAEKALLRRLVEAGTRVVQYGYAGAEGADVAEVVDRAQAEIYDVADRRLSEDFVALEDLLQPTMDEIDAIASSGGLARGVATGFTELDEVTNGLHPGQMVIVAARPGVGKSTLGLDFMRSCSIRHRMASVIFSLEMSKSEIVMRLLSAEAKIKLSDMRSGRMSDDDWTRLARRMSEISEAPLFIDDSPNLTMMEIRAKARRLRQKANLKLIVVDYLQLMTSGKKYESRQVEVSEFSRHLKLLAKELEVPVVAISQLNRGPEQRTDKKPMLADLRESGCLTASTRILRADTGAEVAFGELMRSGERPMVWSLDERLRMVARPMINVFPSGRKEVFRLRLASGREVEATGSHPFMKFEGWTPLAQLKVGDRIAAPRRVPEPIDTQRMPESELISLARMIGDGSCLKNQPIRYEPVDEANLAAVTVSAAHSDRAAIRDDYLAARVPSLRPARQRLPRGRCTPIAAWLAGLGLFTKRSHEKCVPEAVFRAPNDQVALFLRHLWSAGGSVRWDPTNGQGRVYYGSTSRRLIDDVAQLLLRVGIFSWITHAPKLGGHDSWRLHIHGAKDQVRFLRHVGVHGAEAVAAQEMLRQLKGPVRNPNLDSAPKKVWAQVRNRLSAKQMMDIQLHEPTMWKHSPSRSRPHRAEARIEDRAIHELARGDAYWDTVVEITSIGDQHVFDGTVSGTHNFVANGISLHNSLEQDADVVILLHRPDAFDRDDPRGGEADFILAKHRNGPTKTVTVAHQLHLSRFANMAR

[11] = target: T4, Heat shock factor protein 1 (Mus musculus, UniProt P38532); assay: enhancement of HSF1-driven luciferase signal – cell-based, NIH3T3, luminescence, dose retest, confirmation (AID 435004); assay type: functional;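 further: stress induced by proteasome inhibitor MG132 added 30 min after compound; luciferase reporter driven by HSF1 response element in NIH3T3 cells; actives raise luminescence as potentiators of the MG132 stress response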
T4 sequence (P38532 whole entry): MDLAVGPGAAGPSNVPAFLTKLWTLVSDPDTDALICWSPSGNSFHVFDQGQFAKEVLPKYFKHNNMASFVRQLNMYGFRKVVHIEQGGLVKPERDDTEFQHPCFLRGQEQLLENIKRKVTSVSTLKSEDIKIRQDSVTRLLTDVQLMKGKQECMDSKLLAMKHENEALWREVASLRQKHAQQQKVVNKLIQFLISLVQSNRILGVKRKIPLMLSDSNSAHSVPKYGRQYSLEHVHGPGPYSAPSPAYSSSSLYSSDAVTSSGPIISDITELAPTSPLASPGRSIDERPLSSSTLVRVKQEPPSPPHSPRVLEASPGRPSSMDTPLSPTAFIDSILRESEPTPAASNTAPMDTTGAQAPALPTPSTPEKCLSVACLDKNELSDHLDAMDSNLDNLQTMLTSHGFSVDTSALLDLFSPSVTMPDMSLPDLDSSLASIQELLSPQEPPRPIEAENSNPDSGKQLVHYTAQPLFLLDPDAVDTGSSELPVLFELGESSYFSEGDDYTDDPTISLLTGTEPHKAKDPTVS

Protein RecA = target: T5, Protein RecA (Mycobacterium tuberculosis, UniProt P9WHJ3); assay: Fluorescence Cell-Free Homogeneous Dose Retest to Identify Inhibitors of RecA-Intein Splicing Activity. [Related pubchem assays (depositor defined):AID2097, AID2223, AID489010, AID492950]; assay type: functional
T5 sequence (P9WHJ3 whole entry): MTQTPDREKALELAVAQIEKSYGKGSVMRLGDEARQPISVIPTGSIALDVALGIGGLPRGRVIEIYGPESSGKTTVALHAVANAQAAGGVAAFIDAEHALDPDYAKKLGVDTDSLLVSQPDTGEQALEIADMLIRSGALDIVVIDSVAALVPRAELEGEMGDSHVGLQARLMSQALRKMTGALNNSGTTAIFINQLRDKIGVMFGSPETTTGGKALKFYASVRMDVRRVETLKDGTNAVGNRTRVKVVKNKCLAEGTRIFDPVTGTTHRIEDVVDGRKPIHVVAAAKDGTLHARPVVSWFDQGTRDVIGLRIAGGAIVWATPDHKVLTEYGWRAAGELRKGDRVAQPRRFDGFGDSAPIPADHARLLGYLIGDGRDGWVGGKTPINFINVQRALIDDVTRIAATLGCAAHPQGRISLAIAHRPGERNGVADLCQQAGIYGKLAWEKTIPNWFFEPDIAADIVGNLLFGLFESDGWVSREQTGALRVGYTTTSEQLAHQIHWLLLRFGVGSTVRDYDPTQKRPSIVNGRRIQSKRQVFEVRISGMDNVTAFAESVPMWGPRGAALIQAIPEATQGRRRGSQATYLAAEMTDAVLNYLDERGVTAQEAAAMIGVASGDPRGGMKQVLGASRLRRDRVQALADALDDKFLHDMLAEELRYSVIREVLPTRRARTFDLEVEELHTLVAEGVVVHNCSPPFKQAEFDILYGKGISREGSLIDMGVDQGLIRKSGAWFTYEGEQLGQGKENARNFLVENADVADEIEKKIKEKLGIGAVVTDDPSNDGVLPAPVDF

[12] = HEK-293T viability loss after treatment – luminescence, T-cell screen hits, cytotoxicity control for TCR NF-kB inhibitor project, dose response (AID 489026); assay type: functional, cell-based;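 further: cells exposed to compound about 14 hours before the viability readout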
[13] = microbe, parasite or virus in culture; assay type: functional; settings: Mycobacterium tuberculosis

Chain of Cytochrome P450 3A4 (P08684 whole entry): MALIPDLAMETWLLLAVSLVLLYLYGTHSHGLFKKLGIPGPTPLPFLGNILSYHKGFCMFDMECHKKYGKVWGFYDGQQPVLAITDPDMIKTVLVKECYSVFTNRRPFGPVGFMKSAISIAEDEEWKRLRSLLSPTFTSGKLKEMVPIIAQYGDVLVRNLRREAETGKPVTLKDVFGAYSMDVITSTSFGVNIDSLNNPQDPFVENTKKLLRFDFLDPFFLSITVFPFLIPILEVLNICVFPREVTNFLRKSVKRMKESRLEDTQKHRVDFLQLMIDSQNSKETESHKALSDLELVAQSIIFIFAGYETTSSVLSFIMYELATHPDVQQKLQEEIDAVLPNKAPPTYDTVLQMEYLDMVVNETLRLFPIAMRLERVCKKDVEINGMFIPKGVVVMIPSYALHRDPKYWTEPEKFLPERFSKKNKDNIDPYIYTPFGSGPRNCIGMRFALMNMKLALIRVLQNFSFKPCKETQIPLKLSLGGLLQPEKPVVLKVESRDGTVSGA

In the case of CCN(CC)CCNc1ncnc2c1sc1nc(N3CCCC3)c3c(c12)CC(C)(C)OC3, the EC50 [1] is reported as 2.86 µM (active), the AC50 [2] is reported as 4.72 µM (active) and the EC50 [3] is reported as 10.2 µM (active). The AC50 [4] was 19.7 µM (active).
For CCN(CCCNC(=O)CCNC(=O)Cn1ccc2ccccc2c1=O)c1ccccc1, the EC50 (cells [5]) was > 350 µM (not active) and the EC50 (cells [6]) was > 350 µM (not active).
With CCCCCCn1nc(C(=O)Nc2nc3c(s2)CCCC3)c2ccccc2c1=O the EC50 (cells [5]) was 115 µM (active) and the EC50 (cells [6]) was > 350 µM (not active).
For COC(=O)[C@@H]1C[C@H]2CC[C@H](O)C[C@H]2N1Cc1ccc(C)s1, the AC50 (Cytochrome P450 3A4) was 15.8 µM (inconclusive).
With CC(=O)Oc1ccc2c(c1C(C)C)CCC1C(C)(C)CCC[C@@]21C (stereo not given in full) the AC50 (Cytochrome P450 3A4) was 39.8 µM (inconclusive).
With CC1CCN(C(=O)CS(=O)(=O)Cc2ccccc2)CC1 the EC50 (cells [5]) was 273 µM (active) and the EC50 (cells [6]) was > 350 µM (not active).
For C[C@@H]1CN([C@H](C)CO)C(=O)c2cc(C3=CCCCC3)cnc2O[C@@H]1CN(C)Cc1ccccc1, the AC50 [7] was 28 µM (active).
With Cc1cc(C)cc(N(CC(=O)Nc2ccccc2C(=O)N2CCOCC2)S(C)(=O)=O)c1 the EC50 (cells [5]) was > 350 µM (not active) and the EC50 (cells [6]) was > 350 µM (not active).
For Cc1nc(NC2CCCCC2)c2nc(-c3ccccc3)n(CCCN3CCOCC3)c2n1, the AC50 (Cytochrome P450 3A4) was 5.01 µM (inconclusive).
For FC(F)(F)c1ccc(CN2C[C@@H]3C(c4ccc(Cl)nc4)C4(c5ccccc5)CC3(C4)[C@H]2c2ccccc2)cc1 (stereo not given in full), the AC50 (Cytochrome P450 3A4) was 20 µM (inconclusive).
With CC(=O)N1CCC(=NNC(=O)c2cc3ccccc3cc2O)CC1 the EC50 (cells [5]) was 22.2 µM (active), the EC50 [8] was > 150 µM (inactive) and the EC50 (cells [6]) was > 350 µM (not active). The EC50 [9] was > 38 µM (not active).
In the case of CCOC(=O)c1sc(=S)n(-c2ccccc2)c1C, the EC50 (cells [5]) is reported as > 350 µM (not active) and the EC50 (cells [6]) is reported as > 350 µM (not active).
In the case of CCCSc1nnc(Sc2nnnn2-c2ccccc2)s1, the AC50 [10] is reported as 12.5 µM (active), the AC50 [7] is reported as 0.771 µM (active) and the EC50 [11] is reported as 22 µM (active). The EC50 (Protein RecA) was 14.5 µM (active), the IC50 [12] was > 80 µM (inactive) and the CC50 [13] was 6.83 µM (active).
For O=C(c1ccc(Cl)cc1)C(Cn1cncn1)C(Sc1ccccc1)c1ccccc1 (stereo not given), the AC50 [7] was 13 µM (active).
